Experimental findings from patent publication US5527796A, “Thienothiazine derivatives and their use” (Chemisch Pharmazeutische Forschungsgesellschaft m.b.H., priority 1992, dated 1996) are described below.

For test [1], the target named is T1, 5-lipoxygenase (Rattus norvegicus, UniProt P12527).
T1 construct: neutrophils harvested by aspiration; endogenous in cells; host or cells: peritoneal neutrophils of male Sprague Dawley rats, harvested 16 h after intraperitoneal carrageenan
T1 sequence (P12527 1-673): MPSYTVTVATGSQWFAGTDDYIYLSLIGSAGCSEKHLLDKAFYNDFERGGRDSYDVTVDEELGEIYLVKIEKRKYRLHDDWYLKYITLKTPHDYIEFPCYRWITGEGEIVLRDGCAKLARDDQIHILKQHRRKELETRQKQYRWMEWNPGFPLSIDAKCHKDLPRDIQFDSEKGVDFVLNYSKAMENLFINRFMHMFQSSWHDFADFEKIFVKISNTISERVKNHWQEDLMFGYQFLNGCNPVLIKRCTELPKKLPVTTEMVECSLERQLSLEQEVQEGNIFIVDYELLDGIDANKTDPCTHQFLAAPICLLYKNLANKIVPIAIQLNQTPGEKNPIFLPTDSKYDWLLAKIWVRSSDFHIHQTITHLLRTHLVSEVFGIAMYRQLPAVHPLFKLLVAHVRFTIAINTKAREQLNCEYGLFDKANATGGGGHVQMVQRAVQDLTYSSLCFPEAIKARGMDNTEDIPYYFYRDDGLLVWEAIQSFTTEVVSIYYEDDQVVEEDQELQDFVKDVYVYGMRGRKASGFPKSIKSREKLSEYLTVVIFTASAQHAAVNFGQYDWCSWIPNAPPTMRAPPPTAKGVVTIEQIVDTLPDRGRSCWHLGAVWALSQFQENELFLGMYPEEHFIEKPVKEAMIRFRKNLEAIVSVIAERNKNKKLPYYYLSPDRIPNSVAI
As to the kind of experiment: formation of LTB4 by neutrophils as a measure for 5-lipoxygenase activity (A23187-stimulated, RIA). Format: cell-based, Male Sprague Dawley rats. The note with it: A23187 2 μmol/l, 5 min at 37° C. Here is the method:
(§1) The formation of PGD2 by neutrophils was used as a measure for cyclooxygenase activity and the formation of LTB4 was used as a measure for 5-lipoxygenase activity.
(§2) Male Sprague Dawley rats (250-300 g) were injected with lambda carrageenan 1 mg intraperitoneally (dissolved in 0.5 ml dest.water) per animal. After 16 hours the rats were killed by exposure to diethylether. 15 ml ice cold Hanks balanced salt solution were injected i.p., neutrophils harvested by aspiration (10 ml), centrifuged (5 min, 100 g, 4° C.), the supernatant decanted and cells resuspended in HBSS at 4° C. to 5×10^6 cells/mi. 400 μl cell suspension (2×10^6 cells), 0.5 μl drugs dissolved in DMSO and 49.5 μl HBSS were incubated for 5 min at 37° C. Then 50 μl A23187 (2 μmol/l final conc.) were added followed by 5 min incubation at 37° C. The reaction was stopped by centrifugation for 30 s at 10000 g and the supernatant transferred to precooled plastic tubes and kept in an ice bath for max. 1 hour before starting RIA. PGD2 and LTB4 in the samples were measured after appropriate dilution with HBSS using commercial RIA kits.
(§3) Using the above mentioned methods the new compounds were tested. The inhibition of cyclooxygenase and of 5-lipoxygenase was measured.

In test [2] the test system is cyclooxygenase. Nature of the test: formation of PGD2 by neutrophils as a measure for cyclooxygenase activity (A23187-stimulated, RIA). Format: cell-based, Male Sprague Dawley rats. To be noted: for IC50: rat neutrophils, A23187 2 μmol/l, 5 min at 37° C., RIA of PGD2. Here is the method:
as §1, §2, §3

A value given as a limit tells only on which side of the number the result lay.

In the case of `CN1C(C(=O)Nc2ccccn2)=C(O)c2sc(Cl)cc2S1(=O)=O` [Compound A, 6-chloro-4-hydroxy-2-methylo-N-(2-pyridyl)-2h-thieno[2,3-e]-1,2-thiazine-3-carboxamide-1,1-dioxide, reference compound], the IC50 (commonly the point on the concentration scale where inhibition reaches its midpoint) in test [1] is more than 10000 nM; in test [2], 20 nM. Further, in test [2] (PGD2 formation), the “inhibition of cyclooxygenase (in words)” value is “inhibited only cyclooxygenase”.
In the case of `CN1C(C(=O)Nc2cccc(OCc3ccc4ccccc4n3)n2)=C(O)c2sc(Cl)cc2S1(=O)=O` [Example 17, 6-Chloro-4-hydroxy-2-methyl-N-[6-quinalinylmethoxy]-2-pyridyl-2H-thieno[2,3-e]-1,2-thiazin-3-carbox-amide-1,1,-dioxide], the IC50 turned out to be 2000 nM in test [1] and 660 nM in test [2].
With `CN1C(C(=O)Nc2cccc(CCCc3ccccc3)n2)=C(O)c2sc(Cl)cc2S1(=O)=O` [Example 8, 6-Chloro-4-hydroxy-2-methyl-N-[6-(3-phenylpropyl)]-2-pyridyl-2H-thieno[2,3-e]-1,2-thiazin-3-carbox-amide-1,1,-dioxide], the values for the half-maximal inhibitory concentration (IC50) in test [1] and in test [2] were 4200 nM and 510 nM, respectively.
`CN1C(C(=O)Nc2cccc(COc3ccc(F)cc3)n2)=C(O)c2sc(Cl)cc2S1(=O)=O` [Example 10, 6-Chloro-4-hydroxy-2-methyl-N-[6-(4-fluorphenoxy-methyl)]-2-pyridyl-2H-thieno[2,3-e]-1,2-thiazin-3-carboxamide-1,1,-dioxide]: the figures for the concentration for half-maximal inhibition (IC50) in test [1] and in test [2] were 4800 nM and 450 nM, respectively.
On the same counts, the results for `CN1C(C(=O)Nc2cccc(C#Cc3ccccc3)n2)=C(O)c2sc(Cl)cc2S1(=O)=O` [Example 7, 6-Chloro-4-hydroxy-2-methyl-N-[6-phenylethinyl]-2-pyridyl-2H-thieno[2,3-e]-1,2-thiazin-3-carbox-amide-1,1,-dioxide] are 3700 nM and 410 nM.
On the same counts, the results for `CN1C(C(=O)Nc2cccc(COc3ccccc3)n2)=C(O)c2sc(Cl)cc2S1(=O)=O` [Example 11] are 7300 nM and 120 nM.
On the same counts, the results for `CN1C(C(=O)Nc2cccc(OCc3cc4ccccc4s3)n2)=C(O)c2sc(Cl)cc2S1(=O)=O` [Example 20] are 3200 nM and 350 nM.
`CN1C(C(=O)Nc2cccc(-c3cc4ccccc4o3)n2)=C(O)c2sc(Cl)cc2S1(=O)=O` [Example 12, 6-Chloro-4-hydroxy-2-methyl-N-[6-(2-benzo(b)furyl)]-2-pyridyl-2H-thieno[2,3-e]-1,2-thiazin-3-carbox-amide-1,1,-diol]: the IC50 in test [1] is 2000 nM; in test [2] it was 16 nM.
As for `CN1C(C(=O)Nc2cccc(CCc3ccccc3)n2)=C(O)c2sc(Cl)cc2S1(=O)=O` [Example 4, 6-Chloro-4-hydroxy-2-methyl-N-[6-(2-phenylethyl)-2-pyridyl]-2H-thieno[2,3-e]-1,2-thiazine-3-carboxamide-1,1-dioxide], the concentration for half-maximal inhibition (IC50) was determined as 2700 nM in test [1] and 190 nM in test [2].
The like results for `CN1C(C(=O)Nc2cccc(/C=C/c3ccccc3)n2)=C(O)c2sc(Cl)cc2S1(=O)=O` [Example 14, 6-Chloro-4-hydroxy-2-methyl-N-[6-((E)-2-phenylethenyl)]-2-pyridyl-2H-thieno[2,3-e]-1,2-thiazin-3-carbox-amide-1,1,-dioxide] were, in that order, 4300 nM and 180 nM.
On the same counts, the results for `CN1C(C(=O)Nc2cccc(CCCCc3ccccc3)n2)=C(O)c2sc(Cl)cc2S1(=O)=O` [Example 9, 6-Chloro-4-hydroxy-2-methyl-N-[6-(4-phenylbutyl)]-2-pyridyl-2H-thieno[2,3-e]-1,2-thiazin-3-carbox-amide-1,1,-dioxide] are 1900 nM and 750 nM.
On the same counts, the results for `CN1C(C(=O)Nc2cccc(OCc3ccccc3)n2)=C(O)c2sc(Cl)cc2S1(=O)=O` [Example 13, 6-Chloro-4-hydroxy-2-methyl-N-[6-phenylmethoxy]-2-pyridyl-2H-thieno[2,3-e]-1,2-thiazin-3-carbox-amide-1,1,-dioxide] are 5100 nM and 150 nM.
